Target: T1, MATK (HYL) (Homo sapiens, UniProt P42679)
T1 construct: purchased Thermo Fisher Scientific (Life Technologies) SelectScreen
Assay: SelectScreen Z'LYTE
Type: biochemical
Procedure, shortened: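 Percent values come from Thermo SelectScreen profiling of NU5455, combining activity and binding assays. CSF1R was run in Z'LYTE format at Km app ATP, and CAMK1 in Adapta format with ATP listed at 10.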

T1 sequence (P42679 whole entry): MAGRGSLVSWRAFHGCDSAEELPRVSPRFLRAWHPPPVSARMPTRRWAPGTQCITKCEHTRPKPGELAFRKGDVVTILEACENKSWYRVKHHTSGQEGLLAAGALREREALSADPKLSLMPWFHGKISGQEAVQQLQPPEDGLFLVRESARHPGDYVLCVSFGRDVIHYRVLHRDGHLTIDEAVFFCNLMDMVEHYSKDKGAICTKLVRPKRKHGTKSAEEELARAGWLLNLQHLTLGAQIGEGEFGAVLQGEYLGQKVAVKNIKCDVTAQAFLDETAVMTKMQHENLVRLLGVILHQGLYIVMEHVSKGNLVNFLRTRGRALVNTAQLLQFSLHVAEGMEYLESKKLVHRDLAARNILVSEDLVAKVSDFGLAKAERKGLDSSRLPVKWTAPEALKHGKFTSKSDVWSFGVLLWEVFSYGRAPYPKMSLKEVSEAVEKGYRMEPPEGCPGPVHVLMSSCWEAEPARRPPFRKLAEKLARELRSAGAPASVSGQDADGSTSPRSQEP

SMILES: CN(C(=O)CN1CCOCC1)c1ccc2sc3c(-c4cccc5c(=O)cc(N6CC7CCC(C6)O7)oc45)cccc3c2c1 [NU5455]
- inhibition at 1 µM: -6.3%

Reference: publication PMC6934184, “Selective DNA-PKcs inhibition extends the therapeutic index of localized radiotherapy and chemotherapy” (The Journal of Clinical Investigation, 2019)
